Measurements as given in US20230102192A1, “THERAPIES FOR THE TREATMENT OF DISEASES AND DISORDERS ASSOCIATED WITH ABNORMAL EXPRESSION OF A NEURAL-ASSOCIATED GENE” (The Regents of the University of California, priority 2020, published 2023).
Entries after “also recorded” stand apart in the source; their conditions may differ.

Legend:
Type in all cases: cell-based, human
[1] = test system: MECP2-KO cortical organoids; test: MEA electrophysiology of cortical organoids; details: 1 μM for one month, compared with control organoids
Description: Multi-electrode array (MEA) analysis. MEA analyses of neurons and cortical organoids were performed as described in Nageshappa et al. (Mol. Psychiatry 21:178-188 (2016)). Briefly, 3D neurosphere cultures of NPC derivation were plated on dual-chamber MEA; spontaneous spike activity was evaluated with the MED64 System (Panasonic). Glutamatergic (AP5, NBQX), GABAergic (Gabazine), and gap channel (Mefloquine) antagonism were used to check neuronal activity. After measurement, neurons were immunostained to check morphology and density. Recorded spikes were analyzed with the software Neuroexplorer (Nex Technologies, Madison, Ala., USA). For cortical organoids, 1-month organoids were plated on MEA plates and recordings were collected with a Maestro MEA system and AxIS Software Spontaneous Neural Configuration (Axion Biosystems, Atlanta, Ga., USA) using a customized script. The plate rested in the machine for three minutes followed by four minutes of recording. […] The synchrony index was calculated using a 20 ms cross-correlogram synchrony window was used to determine the synchrony index. […]
Nefiracetam and PHA 543613 rescue network activity in MECP2-KO cortical organoids. The therapeutic efficacy of Nefiracetam and PHA 543613 was evaluated with cortical organoids, a complex, three-dimensional human neurodevelopmental model that closely recapitulates aspects of human fetal neurodevelopment. […]

[2] = test system: MECP2-KO cortical organoids; test: Nuclei size in cortical organoids; details: vs KO untreated
MECP2-KO neurons [3] = test: Co-localized pre/postsynaptic puncta quantification in neurons; details: one-month old MECP2-KO neurons treated two weeks
Description: Pharmacologic treatment. One-month old cortical organoids were treated for 1 mo with either Nefiracetam (10 μM) or PHA 543613 (10 μM) during media changes.
Synaptic puncta quantification. Co-localized pre and postsynaptic puncta (Vglut and Homer1 immunostained) along MAP2-positive processes were quantified. Primary antibodies (see above) incubated 2 h, secondary antibodies incubated 1 h, and coverslips were mounted. Slides were analyzed under fluorescence microscopy.
Pharmacologic screening identifies two compounds that specifically reverse MECP2-KO phenotypes. 14 commercially available pharmacologic compounds with mechanisms of action that counteract the synapse and neurotransmitter pathologies were selected and which are identified in FIG. 5B. […] MECP2-KO and control neurons were treated with each of the 14 compounds and employed a tiered series of assays to identify those that could selectively rescue MECP2-KO pathology without affecting controls. […] The capacity of these compounds to increase pre and post co-localized synaptic puncta in MECP2-KO neurons were evaluated, again eliminating the drugs that affected control neurons (see FIG. 5F-G, and FIG. 6C-D).

MECP2-KO neurons [4] = test: Neuronal morphology (neurites, spine density); details: vs KO untreated
Description: Spine density and morphology/stability/motility. pHIV7/Syn-EGFP lentivirus was prepared by transfecting HEK cells using the transfection agent polyethyleneimine (Polysciences, Inc., Warrington, Pa., USA), pSyn-EGFP and packaging plasmids pMDL, Rev RSV and VSVG. During cortical neuron differentiation, on day 40, control and MECP2dup neurons were transduced with pHIV7/syn-EGFP. Post transduction, neurons were further differentiated until day 70 and were fixed with 4% PFA and further processed for imaging. Confocal images were obtained using a confocal laser-scanning microscope (Nikon), 60× oil objective, with a sequential acquisition setting at 4096×4096 pixels resolution. Each image is a Z-series projection of ˜7 to 15 images, averaged 2 times and taken at 0.5 μm depth intervals. GFP-labeled differentiated neurons were chosen randomly for quantification. Quantitative analysis was performed in a blinded manner. Dendrites on primary branches were selected randomly and for each neuron two to three segments of 10 μm were analyzed. Morphometric measurements were performed manually using the ImageJ software (1.44p version). Each spine on the dendrites was manually traced. The length and head width of each spine was automatically measured and used to categorize the spines. Specifically, spines where defined as thin and filopodia (immature) or mushroom and stubby (mature) according to the criteria defined previously. Twenty-two (51 segments of 10 μm) and 18 (42 segments of 10 μm) neurons were analyzed for the control and MECP2dup neurons, respectively; two clones for each condition.
Analysis of neuronal morphology. PSC-derived neuronal morphometry was performed as described in Chailangkarn et al. Briefly, neurons with branching neurites featuring dendritic spine-like protrusions were selected, and neuronal morphology was quantified using Neurolucida v9 (MBF Bioscience, Williston, Vt.) via Nikon Eclipse E600 microscope (40× oil). Measurements were as follows: Spine number: number of spines protruding from neurites; soma size: soma area on cross-section; spine length: summed length of all spines per neuron. The rater traced the same neuron after a period of time to ensure intra-rater reliability.

[5] = test system: MECP2-mosaic (CTR/KO) neurospheres; test: Nuclei size in neurospheres; details: vs CTR/KO untreated
MECP2-KO neurons [6] = test: Nuclei size in neurons; details: vs KO untreated

| Structure (SMILES) | population spiking (MEA) [1] | nuclei size in cortical organoids [2] | synaptogenesis / co-localized synaptic puncta (MECP2-KO neurons [3]) | number of neurites (MECP2-KO neurons [4]) | total neurite length (MECP2-KO neurons [4]) | nuclei size in neurospheres [5] | nuclei size in neurons (MECP2-KO neurons [6]) |
| --- | --- | --- | --- | --- | --- | --- | --- |
| Cc1cccc(C)c1NC(=O)CN1CCCC1=O [Nefiracetam, nefiracetam] | increased population spiking to a level not significantly different from that of control organoids | did not rescue | specifically increased synaptogenesis | did not increase; also recorded: did not rescue | did not increase; also recorded: did not rescue | did not rescue | did not rescue |
| O=C(N[C@H]1CN2CCC1CC2)c1cc2ccoc2cn1 [PHA 543613, N-[(3R)-1-azabicyclo[2.2.2]oct-3-yl]furo[2,3-c]pyridine-5-carboxamide] | increased population spiking to a level not significantly different from that of control organoids | did not rescue | increases synaptic puncta | did not increase; also recorded: did not rescue | did not increase; also recorded: did not rescue | did not rescue | did not rescue |
